IC50 data for 13 molecules are collected here from patent US10472333B2, “P2X4 receptor antagonist” (NIPPON CHEMIPHAR CO., LTD., priority 2013, dated 2019).

A word on the pIC50: it is −log10 of the IC50, conventionally taken in molar units.

pIC50: −log10 of the molar value. Where a name gives a salt, the structure may show the parent alone.

The target in one test is T1, human P2X4 receptor (Homo sapiens, UniProt Q99571).
T1 sequence (Q99571 1-388): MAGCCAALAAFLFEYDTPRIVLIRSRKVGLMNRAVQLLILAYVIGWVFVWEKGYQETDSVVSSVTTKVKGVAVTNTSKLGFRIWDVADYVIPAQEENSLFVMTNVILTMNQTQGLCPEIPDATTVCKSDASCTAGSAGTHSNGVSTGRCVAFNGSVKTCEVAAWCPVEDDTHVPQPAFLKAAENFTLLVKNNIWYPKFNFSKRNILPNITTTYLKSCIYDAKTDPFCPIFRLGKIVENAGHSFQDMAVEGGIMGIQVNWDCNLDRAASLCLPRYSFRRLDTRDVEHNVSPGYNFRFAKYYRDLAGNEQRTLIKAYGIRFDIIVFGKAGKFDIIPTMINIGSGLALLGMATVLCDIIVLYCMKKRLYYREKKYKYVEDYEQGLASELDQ
Kind of test: P2X4 receptor antagonist activity, ATP-induced intracellular calcium (Fura-2 AM) in 1321N1 cells stably expressing human P2X4 receptor.
Conditions: not given
Format: cell-based.
`CCc1c(O)cccc1C(=O)Nc1ccc(C2=NCC(=O)Nc3c2ccc2ccccc32)cc1` [Example 2, 2-Ethyl-3-hydroxy-N-[4-(2-oxo-2,3-dihydro-1H-naphtho[1,2-e][1,4]-diazepin-5-yl)phenyl]benzamide]: the pIC50 is 6.11. The same measure, in the same setting: under `CCc1ncccc1C(=O)Nc1ccc(C2=NCC(=O)Nc3c2ccc2ccccc32)cc1` [Example 3, 2-Ethyl-N-[4-(2-oxo-2,3-dihydro-1H-naphtho[1,2-e][1,4]-diazepin-5-yl)phenyl]nicotinamide dihydrochloride] stands 5.80; under `CCc1cccc(O)c1C(=O)Nc1ccc(C2=NCC(=O)Nc3c2ccc2ccccc32)cc1` [Example 4, 2-Ethyl-6-hydroxy-N-[4-(2-oxo-2,3-dihydro-1H-naphtho[1,2-e][1,4]-diazepin-5-yl)phenyl]benzamide], 5.82. `COc1ccccc1CC(=O)Nc1ccc(C2=NCC(=O)Nc3c2ccc2ccccc32)cc1` [Example 7, 2(2-Methoxyphenyl)-N-[4-(2-oxo-2,3-dihydro-1H-naphtho[1,2-e][1,4]-diazepin-5-yl)phenyl]acetamide]: the pIC50 is 6.01.

Regarding `O=C1CN=C(c2ccc(NC(=O)c3cccnc3-n3cccc3)cc2)c2ccc3ccccc3c2N1` [Example 19, N-[4-(2-Oxo-2,3-dihydro-1H-naphtho[1,2-e][1,4]-diazepin-5-yl)phenyl]-2-(1H-pyrrol-1-yl)nicotinamide dihydrochloride], the pIC50 was 5.62. Same read-out and setting: under `O=C1CN=C(c2ccc(NC(=O)c3cccnc3N3CCOCC3)cc2)c2ccc3ccccc3c2N1` [Example 20, 2-(Morpholin-4-yl)-N-[4-(2-oxo-2,3-dihydro-1H-naphtho[1,2-e][1,4]-diazepin-5-yl)phenyl]nicotinamide dihydrochloride] stands 5.60. Consider `O=C1CN=C(c2ccc(NC(=O)c3cccnc3N3CCCC3)cc2)c2ccc3ccccc3c2N1` [Example 21, N-[4-(2-Oxo-2,3-dihydro-1H-naphtho[1,2-e][1,4]-diazepin-5-yl)phenyl]-2-(pyrrolidin-1-yl)nicotinamide dihydrochloride], for which the pIC50 was 5.89. For the molecule `CN(C)c1ccncc1C(=O)Nc1ccc(C2=NCC(=O)Nc3c2ccc2ccccc32)cc1` [Example 22, 4-(Dimethylamino)-N-[4-(2-oxo-2,3-dihydro-1H-naphtho[1,2-e][1,4]diazepin-5 yl)phenyl]nicotinamide dihydrochloride], the pIC50 is 5.82. On the same count and under the same terms, under `CC(C)c1ncccc1C(=O)Nc1ccc(C2=NCC(=O)Nc3c2ccc2ccccc32)cc1` [Example 23, 2-Isopropyl-N-[4-(2-oxo-2,3-dihydro-1H-naphtho[1,2-e][1,4]diazepin-5 yl)phenyl]nicotinamide dihydrochloride] stands 5.64; under `CC(C)Nc1ncccc1C(=O)Nc1ccc(C2=NCC(=O)Nc3c2ccc2ccccc32)cc1` [Example 24, 2-(Isopropylamino)-N-[4-(2-oxo-2,3-dihydro-1H-naphtho[1,2-e][1,4]diazepin-5-yl)phenyl]nicotinamide dihydrochloride], 5.07.

The same test, now with this note: Table 9; 1321N1 cells expressing human P2X4; test substance 15 minutes before ATP; read-out: Inhibitory activity IC50.
`CC(C)(C)c1ccccc1C(=O)Nc1ccc(N2C(=O)CC(=O)Nc3c2ccc2ccccc32)cc1F` [Example 12, 2-tert-Butyl-N-[4-(2,4-dioxo-3,4-dihydro-1H-naphtho[2,1-b][1,4]diazepin-5(2H)-yl)2-fluorophenyl]benzamide]: the pIC50 was 6.43. The same measure, in the same setting: under `CN(C)c1ncccc1C(=O)Nc1ccc(N2C(=O)CC(=O)Nc3c2ccc2ccccc32)cc1` [Example 14, 2-(Dimethylamino)-N-[4-(2,4-dioxo-2,3-dihydro-1H-naphtho[1,2-b][1,4]diazepin-5(2H)-yl)phenyl]nicotinamide hydrochloride] stands 6.23.

The test is the same for the next values; noted with them: Table 10; 1321N1 cells expressing human P2X4; test substance 15 minutes before ATP; read-out: Inhibitory activity IC50.
For the molecule `O=C1CC(=O)N(c2ccc(NC(=O)c3cccnc3N3CCOCC3)cc2)c2ccc3ccccc3c2N1` [Example 18, N-[4-(2,4-Dioxo-3,4-dihydro-1H-naphtho[1,2-b][1,4]-diazepin-5(2H)-yl)phenyl]-2-(morpholin-4-yl)-nicotinamide hydrochloride], the pIC50 was 5.89.
